For data set [1], the system named is Trypanosoma cruzi, Tulahuen C4 strain, amastigotes stage. Briefly: In vitro activity against T. cruzi. The format is cell-based. As to the method: (§1) The in vitro activities against the protozoan parasites T.b. rhodesiense, T. cruzi, L. donovani, and P. falciparum and cytotoxicity assessment against L6 cells were determined as reported elsewhere.
The subject of data set [2] is Plasmodium falciparum, K1 strain, IEF stage. Description: In vitro activity against P. falciparum K1. Particulars: for SI Pf: Selectivity index for P. falciparum = IC50 L6/IC50 Pf. The class given is cell-based. As to the method: as §1
In data set [3] the test system is Leishmania donovani, MHOM-ET-67/L82 strain, amastigote/axenic stage. Description: In vitro activity against L. donovani. The format is cell-based. As to the method:
as §1

Data set [4] deals with L6 rat skeletal myoblast cell line. Description: Cytotoxicity against L6 cells. The format is cell-based. As for the experimental part: as §1
In data set [5] the test system is Trypanosoma brucei rhodesiense, STIB 900 strain, trypomastigotes stage. Description: In vitro activity against T. b. rhodesiense. The format is cell-based. As to the method: as §1
Setting [6] is: Trypanosoma cruzi, TULAHUEN, Tulahuen C4, amastigotes, average of two independent assays, read-out: IC50 T. cruzi.
Where [7] appears, read: Leishmania donovani, MHOM-ET-67/L82, axenic amastigotes, average of two independent assays, read-out: IC50 L. don.
Setting [8] is: Rattus norvegicus, Myoblast, cytotoxicity, L6 rat skeletal myoblasts, average of two independent assays, read-out: IC50 L6.
[9] abbreviates: Plasmodium falciparum, K1 dual drug resistant strain, IEF stage, average of two independent assays, read-out: IC50 P. falc. K1.
Setting [10] is: Trypanosoma brucei, STIB 900, trypomastigotes, average of two independent assays, read-out: IC50 T. b. rhod.

The values that follow come from publication PMC3806465, “Discovery and Evaluation of Thiazinoquinones as Anti-Protozoal Agents” (Marine Drugs, 2013).

The structures appear in SMILES notation. Like-named read-outs stand apart in the source and are kept apart here. A value given as a limit tells only on which side of the number the result lay.

As a reminder, the IC50 is the concentration that gives 50% inhibition. One may read the melting point as the temperature, or range, at which the solid turns liquid.

Regarding `O=C(Cn1ccnc1[N+](=O)[O-])NCc1ccccc1` [Benznidazole, reference compound], the IC50 in data set [1] (Trypanosoma cruzi, TULAHUEN, Myoblast, in Rattus norvegicus, read-out: IC50 T. cruzi, Tulahuen C2C4, amastigote forms in L6 rat myoblasts, positive control) is 0.352 µg/mL; in data set [1] (setting [6]) it was 1.8 µM; in data set [1] (Tulahuen C4, amastigotes, average of two independent assays, read-out: IC50 T. cruzi), 1.4 µM.

For `CCN(CC)CCCC(C)Nc1ccnc2cc(Cl)ccc12` (centres unmarked) [Chloroquine, reference compound], the 50% inhibitory concentration (IC50) came out at 0.2 µM in data set [2] (Plasmodium falciparum, K1, read-out: IC50 P. falc. K1, K1 dual drug resistant strain, IEF stage, average of two independent assays); 0.065 µg/mL in data set [2] (Plasmodium falciparum, K1, read-out: IC50 P. falciparum, K1 (chloroquine and pyrimethamine resistant), erythrocytic stages, positive control); 0.28 µM in data set [2] (read-out: IC50 P. falc. K1, K1 dual drug resistant strain, IEF stage, average of two independent assays).

On to `O=C(O)c1ccc2c(n1)C(=O)C1=C(C2=O)S(=O)(=O)CCN1` [Compound 2, ascidiathiazone A], for which the IC50 was greater than 290 µM in data set [1] (setting [6]); 270 µM in data set [3] (setting [7]); 167 µM in data set [4] (setting [8]); 170 µM in data set [4] (cytotoxicity, L6 rat skeletal myoblasts, average of two independent assays, read-out: IC50 L6); 3.3 µM in data set [2] (setting [9]); 3.1 µM in data set [5] (setting [10]). The “SI Pf” value in data set [2] is reported as 50.

Regarding `COC(=O)c1ccc2c(n1)C(=O)C1=C(C2=O)S(=O)(=O)CCN1` [Compound 3], the IC50 worked out at 180 µM in data set [1] (setting [6]); 31 µM in data set [3] (setting [7]); 140 µM in data set [4] (setting [8]); 2.5 µM in data set [2] (setting [9]); 6.6 µM in data set [5] (setting [10]). In addition, the “SI Pf” value in data set [2] amounted to 56.

For `O=C(O)c1ccc2c(n1)C(=O)C1=C(C2=O)S(=O)(=O)C=CN1` [Compound 4], the IC50 is greater than 290 µM in data set [1] (setting [6]); 190 µM in data set [3] (setting [7]); 180 µM in data set [4] (setting [8]); 0.6 µM in data set [2] (setting [9]); 4 µM in data set [5] (setting [10]). The “SI Pf” value in data set [2] is reported as 300.

As for `CCCCNC(=O)c1ccc2c(n1)C(=O)C1=C(C2=O)S(=O)(=O)CCN1` [Compound 7a, N-n-Butyl-5,10-dioxo-3,4,5,10-tetrahydro-2H-[1,4]thiazino[2,3-g]quinoline-7-carboxamide 1,1-Dioxide], the melting point is 200 °C (dec.). Further, the IC50 in data set [1] (setting [6]) stood at 63 µM. Also, in data set [3] (setting [7]), the IC50 is greater than 280 µM. Besides, the IC50 in data set [4] (setting [8]) was 24 µM. In addition, the IC50 in data set [2] (setting [9]) is 0.94 µM. The “SI Pf” value in data set [2] turned out to be 26. Besides, in data set [5] (setting [10]), the IC50 is 5.5 µM.

As for `CCCCCNC(=O)c1ccc2c(n1)C(=O)C1=C(C2=O)S(=O)(=O)CCN1` [Compound 7b, N-n-Pentyl-5,10-dioxo-3,4,5,10-tetrahydro-2H-[1,4]thiazino[2,3-g]quinoline-7-carboxamide 1,1-Dioxide], the melting point was 200 °C (dec.). Moreover, the IC50 in data set [1] (setting [6]) came to 15 µM. Moreover, the IC50 in data set [3] (setting [7]) was 29 µM. The IC50 in data set [4] (setting [8]) amounted to 23 µM. Also, the IC50 in data set [2] (setting [9]) was determined as 0.62 µM. Also, in data set [2], the “SI Pf” value amounted to 37. In addition, the IC50 in data set [5] (setting [10]) came out at 1.8 µM.

Consider `CCCCCCCCNC(=O)c1ccc2c(n1)C(=O)C1=C(C2=O)S(=O)(=O)CCN1` [Compound 7c, N-n-Octyl-5,10-dioxo-3,4,5,10-tetrahydro-2H-[1,4]thiazino[2,3-g]quinoline-7-carboxamide 1,1-Dioxide], for which the melting point was 200 °C (dec.). The IC50 in data set [1] (setting [6]) was 15 µM. In addition, the IC50 in data set [3] (setting [7]) was 48 µM. In addition, in data set [4] (setting [8]), the IC50 is 12 µM. In addition, the IC50 in data set [2] (setting [9]) is 1.1 µM. In addition, the “SI Pf” value in data set [2] is given as 10. Also, the IC50 in data set [5] (setting [10]) stood at 3.9 µM.

As to `O=C(NCc1ccccc1)c1ccc2c(n1)C(=O)C1=C(C2=O)S(=O)(=O)CCN1` [Compound 7d, N-Benzyl-5,10-dioxo-3,4,5,10-tetrahydro-2H-[1,4]thiazino[2,3-g]quinoline-7-carboxamide 1,1-Dioxide], the melting point was 200 °C (dec.). For the same compound, in data set [1] (setting [6]), the IC50 stood at 43 µM. The IC50 in data set [3] (setting [7]) came out at 21 µM. Also, in data set [4] (setting [8]), the IC50 is 15 µM. The IC50 in data set [2] (setting [9]) came out at 1.1 µM. Moreover, the “SI Pf” value in data set [2] was 14. For the same compound, in data set [5] (setting [10]), the IC50 amounted to 1.9 µM.

Turning to `O=C(NCCc1ccccc1)c1ccc2c(n1)C(=O)C1=C(C2=O)S(=O)(=O)CCN1` [Compound 7e, N-Phenethyl-5,10-dioxo-3,4,5,10-tetrahydro-2H-[1,4]thiazino[2,3-g]quinoline-7-carboxamide 1,1-Dioxide], the melting point is 240 °C (dec.). Further, the IC50 in data set [1] (setting [6]) was found to be 140 µM. Moreover, in data set [3] (setting [7]), the IC50 was found to be 160 µM. In addition, the IC50 in data set [4] (setting [8]) was determined as 110 µM. Also, in data set [2] (setting [9]), the IC50 came to 1.5 µM. Moreover, in data set [2], the “SI Pf” value was 72. Further, the IC50 in data set [5] (setting [10]) was 2.4 µM.

With `O=C(NCCCc1ccccc1)c1ccc2c(n1)C(=O)C1=C(C2=O)S(=O)(=O)CCN1` [Compound 7f, N-(3-Phenylpropyl)-5,10-dioxo-3,4,5,10-tetrahydro-2H-[1,4]thiazino[2,3-g] quinoline-7-carboxamide 1,1-Dioxide], the melting point is 204 °C (dec.). Also, the IC50 in data set [1] (setting [6]) was 27 µM. Besides, in data set [3] (setting [7]), the IC50 is 47 µM. In data set [4] (setting [8]), the IC50 is 13 µM. For the same compound, the IC50 in data set [2] (setting [9]) was determined as 1.4 µM. Also, the “SI Pf” value in data set [2] stood at 10. The IC50 in data set [5] (setting [10]) worked out at 2.4 µM.

`CC(C)=CCC/C(C)=C/CNC(=O)c1ccc2c(n1)C(=O)C1=C(C2=O)S(=O)(=O)CCN1` [Compound 7g, (E)-N-(3,7-Dimethylocta-2,6-dien-1-yl)-5,10-dioxo-3,4,5,10-tetrahydro-2H-[1,4]thiazino [2,3-g]quinoline-7-carboxamide 1,1-Dioxide]: the melting point is 200 °C (dec.). Moreover, the IC50 in data set [1] (setting [6]) worked out at 41 µM. The IC50 in data set [3] (setting [7]) was 83 µM. For the same compound, the IC50 in data set [4] (setting [8]) came to 24 µM. Moreover, the IC50 in data set [2] (setting [9]) turned out to be 1.6 µM. In data set [2], the “SI Pf” value is 15. Moreover, the IC50 in data set [5] (setting [10]) came out at 3.4 µM.

On to `COCCNC(=O)c1ccc2c(n1)C(=O)C1=C(C2=O)S(=O)(=O)CCN1` [Compound 7i, N-(2-Methoxyethyl)-5,10-dioxo-3,4,5,10-tetrahydro-2H-[1,4]thiazino[2,3-g] quinoline-7-carboxamide 1,1-Dioxide], for which the melting point was 200 °C (dec.).

Regarding `COC(=O)CNC(=O)c1ccc2c(n1)C(=O)C1=C(C2=O)S(=O)(=O)C=CN1` [Compound 8j, Methyl 2-(1,1-dioxido-5,10-dioxo-5,10-dihydro-4H-[1,4]thiazino[2,3-g]quinoline-7-carboxamido)acetate], the IC50 in data set [1] (setting [6]) worked out at 160 µM; in data set [3] (setting [7]) it was 220 µM; in data set [4] (setting [8]) it was 100 µM; in data set [2] (setting [9]), 1.8 µM; in data set [5] (setting [10]) it was 35 µM. Besides, the “SI Pf” value in data set [2] is 57.

`O=C(O)CNC(=O)c1ccc2c(n1)C(=O)C1=C(C2=O)S(=O)(=O)C=CN1` [Compound 8k, 2-(1,1-Dioxido-5,10-dioxo-5,10-dihydro-4H-[1,4]thiazino[2,3-g]quinoline-7-carboxamido)acetic Acid]: the IC50 is 160 µM in data set [1] (setting [6]); greater than 280 µM in data set [3] (setting [7]); 110 µM in data set [4] (setting [8]); 1.2 µM in data set [2] (setting [9]); 42 µM in data set [5] (setting [10]). Besides, in data set [2], the “SI Pf” value is on record as 93.

Turning to `COC(=O)c1cc2c(s1)C(=O)C1=C(NCCS1(=O)=O)C2=O` [Compound 10b, Methyl 5,9-Dioxo-2,3,5,9-tetrahydro-1H-thieno[3′,2′:4,5]benzo [1,2-b][1,4]thiazine-7-carboxylate 4,4-Dioxide], the melting point is 280 °C (dec.).

On to `O=C(O)c1cc2c(s1)C(=O)C1=C(NCCS1(=O)=O)C2=O` [Compound 11b, 5,9-Dioxo-2,3,5,9-tetrahydro-1H-thieno[3′,2′:4,5]benzo[1,2-b][1,4] thiazine-7-carboxylic Acid 4,4-Dioxide], for which the melting point was 200 °C (dec.).

`Nc1nc(N)nc(Nc2ccc([As]3SCC(CO)S3)cc2)n1` (centres unmarked) [Melarsoprol, reference compound]: the IC50 in data set [5] (Trypanosoma brucei, read-out: IC50 T. b. rhod., STIB 900, trypomastigotes, average of two independent assays) was 0.005 µM; in data set [5] (Trypanosoma brucei, read-out: IC50 T.b. rhodesiense, STIB900, trypomastigote forms, positive control) it was 0.004 µg/mL; in data set [5] (read-out: IC50 T. b. rhod., STIB 900, trypomastigotes, average of two independent assays) it was 0.01 µM.

On to `CCCCCCCCCCCCCCCCOP(=O)([O-])OCC[N+](C)(C)C` [Miltefosine, reference compound], for which the IC50 in data set [3] (setting [7]) amounted to 0.5 µM; in data set [3] (Leishmania donovani, MHOM/ET/67/L82, axenic amastigote forms, positive control, read-out: IC50 L. donovani), 0.213 µg/mL; in data set [3] (MHOM-ET-67/L82, axenic amastigotes, average of two independent assays, read-out: IC50 L. don.), 0.53 µM.

For the compound `COc1cc([C@@H]2c3cc4c(cc3[C@H](O)[C@H]3COC(=O)[C@H]23)OCO4)cc(OC)c1OC` [Podophyllotoxin, reference compound], the IC50 in data set [4] (Rattus norvegicus, L6, read-out: IC50 L6 cells, rat skeletal myoblasts, positive control) stood at 0.004 µg/mL; in data set [4] (Rattus norvegicus, Myoblast, read-out: IC50 L6, cytotoxicity, L6 rat skeletal myoblasts, average of two independent assays), 0.01 µM; in data set [4] (read-out: IC50 L6, cytotoxicity, L6 rat skeletal myoblasts, average of two independent assays) it was 0.019 µM.
